For ten molecules, IC50 results are on record in patent US20100120717A1, “KINASE INHIBITORS” (priority 2006, published 2010).

Broadly, the IC50 is the concentration at which inhibition is half-maximal.

The structures appear in SMILES notation.

Sequence of Aurora B/INCENP (Q96GD4 whole entry): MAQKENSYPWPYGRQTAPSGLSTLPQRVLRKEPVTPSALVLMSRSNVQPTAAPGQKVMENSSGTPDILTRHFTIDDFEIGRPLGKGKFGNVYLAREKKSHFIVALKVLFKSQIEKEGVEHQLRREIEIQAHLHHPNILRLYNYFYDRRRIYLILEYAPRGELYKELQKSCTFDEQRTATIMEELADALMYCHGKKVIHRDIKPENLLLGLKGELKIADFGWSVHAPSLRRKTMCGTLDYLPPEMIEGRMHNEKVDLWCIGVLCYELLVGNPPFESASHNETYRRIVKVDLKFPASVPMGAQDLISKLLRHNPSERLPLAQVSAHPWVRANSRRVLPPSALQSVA
Sequence of Aurora B/INCENP (Q9NQS7 whole entry partner): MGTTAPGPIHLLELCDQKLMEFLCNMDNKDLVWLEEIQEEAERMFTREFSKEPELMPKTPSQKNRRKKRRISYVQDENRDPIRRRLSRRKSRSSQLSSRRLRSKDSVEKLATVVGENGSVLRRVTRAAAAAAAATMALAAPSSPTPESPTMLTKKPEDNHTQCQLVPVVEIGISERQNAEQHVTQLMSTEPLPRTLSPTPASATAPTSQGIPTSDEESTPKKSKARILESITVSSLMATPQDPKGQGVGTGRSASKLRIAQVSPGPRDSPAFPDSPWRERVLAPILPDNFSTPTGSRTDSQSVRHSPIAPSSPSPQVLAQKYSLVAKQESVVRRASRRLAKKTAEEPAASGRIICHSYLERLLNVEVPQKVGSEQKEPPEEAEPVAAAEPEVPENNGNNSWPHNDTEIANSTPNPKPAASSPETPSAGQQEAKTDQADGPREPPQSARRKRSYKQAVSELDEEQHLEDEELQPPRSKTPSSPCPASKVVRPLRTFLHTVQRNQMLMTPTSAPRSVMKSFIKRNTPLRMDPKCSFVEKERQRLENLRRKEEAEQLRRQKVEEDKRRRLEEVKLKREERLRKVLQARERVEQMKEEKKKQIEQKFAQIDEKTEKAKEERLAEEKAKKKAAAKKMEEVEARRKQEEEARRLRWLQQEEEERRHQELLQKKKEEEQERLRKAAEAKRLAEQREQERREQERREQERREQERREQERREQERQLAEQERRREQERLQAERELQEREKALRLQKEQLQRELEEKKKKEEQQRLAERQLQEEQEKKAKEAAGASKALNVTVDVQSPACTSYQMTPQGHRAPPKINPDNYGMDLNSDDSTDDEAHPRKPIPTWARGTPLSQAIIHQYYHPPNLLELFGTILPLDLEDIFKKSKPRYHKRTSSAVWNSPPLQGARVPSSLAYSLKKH

This experiment addresses Aurora B/INCENP (Homo sapiens, UniProt Q96GD4). In words: Determination of inhibition of AIK: Aurora B/INCENP Direct Fluorescence Polarization (IMAP) assay. The experiment is classed as biochemical. The settings on record: 10 uM ATP, 0.8 nM Aurora B/INCENP, 45 min at room temperature; read-out: IC50 of Exemplified Compounds Against AIK B. Here is the method:
Detection of the reaction product is performed by addition of Progressive IMAP binding reagent (Molecular Devices). Reaction product may be determined quantitatively by FP using an Analyst HT plate reader (Molecular Devices) with an excitation wavelength at 485 nm and emission at 530 nm and using a Fluorescein 505 dichroic mirror.
The assay reaction may be initiated as follows: 2 ul of (3×) 300 nM Fl-Peptide/30 uM ATP was added to each well of the plate, followed by the addition of 2 ul of (3×) inhibitor (2 fold serial dilutions for 11 data points for each inhibitor) containing 15% DMSO. Two microliters of (3×) 2.4 nM AuroraB/INCENP solution may be added to initiate the reaction (final enzyme concentration was 0.8 nM for Aurora B/INCENP). The reaction mixture may then be incubated at room temperature for 45 min, and quenched and developed by addition of 20 ul of 1 to 400 diluted Progressive IMAP binding reagent in 1× proprietary Progressive IMAP binding buffer A. Fluorescence polarization readings of the resulting reaction mixtures may be measured after a 60-minute incubation at room temperature.
IC50 values may be calculated by non-linear curve fitting of the compound concentrations and fluorescent polarization values to the standard IC50 equation.
(Polarisation of emitted light reports the rotation of a fluorescent probe.)
On to `Cc1cnc2[nH]c3c(OCCCN(C)C)ccc(-c4cccc(NC(=O)C5CC5)c4)c3c2c1` [Compound 195, N-(3-(8-(3-(dimethylamino)propoxy)-3-methyl-9H-pyrido[2,3-b]indol-5-yl)phenyl)cyclopropanecarboxamide], for which the IC50 is ≥ 11 nM.

As for `CCS(=O)(=O)c1cccc(-c2ccc(OC[C@H](O)CN(C)C)c3[nH]c4ncc(C)cc4c23)c1` [Compound 232, (R)-1-(dimethylamino)-3-(5-(3-(ethylsulfonyl)phenyl)-3-methyl-9H-pyrido[2,3-b]indol-8-yloxy)propan-2-ol], the IC50 is 6 to 10 nM.

Take `CCN(CCCOc1ccc(-c2cccc(S(=O)(=O)C3CC3)c2)c2c1[nH]c1ncc(C)cc12)CCOP(=O)(OC(C)(C)C)OC(C)(C)C` [Compound 271, di-tert-butyl-2-((3-(5-(3-(cyclopropylsulfonyl)phenyl)-3-methyl-9H-pyrido[2,3-b]indol-8-yloxy)propyl)(ethyl)amino)ethyl phosphate]: the IC50 was ≤ 5 nM.

For the molecule `CCN(CCCOc1ccc(-c2cccc(S(=O)(=O)C3CC3)c2)c2c1[nH]c1ncc(C)cc12)CCOP(=O)(O)O` [Compound 272, 2-((3-(5-(3-(cyclopropylsulfonyl)phenyl)-3-methyl-9H-pyrido[2,3-b]indol-8-yloxy)propyl)(ethyl)amino)ethyl dihydrogen phosphate], the IC50 lay in the range of 6 to 10 nM.

`CN1CCC(COc2ccc(-c3cccc(C(=O)NC4CC4)c3)c3c2[nH]c2ncc(Cl)cc23)CC1` [Compound 285, 3-(3-chloro-8-((1-methylpiperidin-4-yl)methoxy)-9H-pyrido[2,3-b]indol-5-yl)-N-cyclopropylbenzamide]: the IC50 is 6 to 10 nM.

Turning to `CN1CCC(COc2ccc(-c3cccc(S(=O)(=O)C4CC4)c3)c3c2[nH]c2ncc(Cl)cc23)CC1` [Compound 286, 3-chloro-5-(3-(cyclopropylsulfonyl)phenyl)-8-((1-methylpiperidin-4-yl)methoxy)-9H-pyrido[2,3-b]indole], the IC50 is 6 to 10 nM.

As to `CCNS(=O)(=O)c1cccc(-c2ccc(OCCCN(C)C)c3[nH]c4ncc(C)cc4c23)c1` [Compound 295, 3-(8-(3-(dimethylamino)propoxy)-3-methyl-9H-pyrido[2,3-b]indol-5-yl)-N-ethylbenzenesulfonamide], the IC50 was in the range of 6 to 10 nM.

Regarding `CCS(=O)(=O)c1cccc(-c2ccc(OCCCN(C)CCOP(=O)(O)O)c3[nH]c4ncc(C)cc4c23)c1` [Compound 308, 2-((3-(5-(3-(ethylsulfonyl)phenyl)-3-methyl-9H-pyrido[2,3-b]indol-8-yloxy)propyl)(methyl)amino)ethyl dihydrogen phosphate], the IC50 is ≤ 5 nM.

With `Cc1cnc2[nH]c3c(OC[C@H](CN(C)C)OP(=O)(O)O)ccc(-c4cccc(S(=O)(=O)C5CC5)c4)c3c2c1` [Compound 314, (S)-1-(5-(3-(cyclopropylsulfonyl)phenyl)-3-methyl-9H-pyrido[2,3-b]indol-8-yloxy)-3-(dimethylamino)propan-2-yl dihydrogen phosphate], the IC50 was ≤ 5 nM.

For `Cc1cnc2[nH]c3c(OC[C@@H](CN(C)C)OP(=O)(O)O)ccc(-c4cccc(S(=O)(=O)C5CC5)c4)c3c2c1` [Compound 315, (R)-1-(5-(3-(cyclopropylsulfonyl)phenyl)-3-methyl-9H-pyrido[2,3-b]indol-8-yloxy)-3-(dimethylamino)propan-2-yl dihydrogen phosphate], the IC50 is ≤ 5 nM.
